# Measured values as given in US20100197765A1, “METHOD FOR PROMOTING THE EXPRESSION OF P53, AND P53 EXPRESSION PROMOTER FOR USE IN THE METHOD” (THE UNIVERSITY OF TOKUSHIMA, priority 2007, published 2010).
# Tests used:
# [1] = system: HepG2 cells; experiment: apoptosis (Apoptotic evaluation 1) of siRNA-expressing HepG2 cells treated with 5-FU; type: cell-based, human; conditions: control siRNA-expressing HepG2 cells treated with 5-FU
# Procedure: Objective cells were treated with various anticancer agents, and then incubated with trypsin/EDTA to prepare cell suspensions. The cell suspensions were centrifuged and supernatants thereof were removed. Thereafter, the cell suspensions each were immobilized and stained with a solution of formaldehyde of 3.7%, Nonidet P40 of 0.5%, and 10 μg/mL of Hoechst33258 (Invitrogen) in PBS. […] The counting was performed with respect to at least 300 cells in one measurement.
# Each type of the recombinant vectors was transfected into HepG2 cells for 18 hours in the same manner as in the above-described item (1). Each type of the transfection cells was treated with an anticancer agent “5-FU” having a predetermined concentration (0, 10, 30 μmol/L) for 60 hours. Then, the apoptosis (%) of the treated cells was examined according to “Apoptosis evaluation 1”. FIG. 1B is a graph showing apoptosis (%) in each type of the cells treated with 5-FU having a predetermined concentration (means±SD, n=3).
# [2] = system: noxa mRNA, puma mRNA, and p21 mRNA; experiment: expression of mRNAs induced in p53 pathways in HepG2 cells (Northern); type: cell-based, human; conditions: control siRNA HepG2 cells, 5-FU 30 μmol/L, 16 hours
# Procedure: In the same manner, HepG2 cells transfected with each type of the vectors were treated for 16 hours in the presence of 5-FU (30 μmol/L) (+) or the absence of 5-FU (−). With respect to the treated cells, expression of noxa mRNA, puma mRNA, and p21 mRNA induced in p53 pathways was analyzed by the Northern blotting. […] In FIG. 1D, the first row from the top indicates expression of noxa mRNA, the second row indicates expression of puma mRNA, the third row indicates expression of p21 mRNA, and the fourth row indicates expression of gapdh mRNA. Definitions of the lanes in FIG. 1D are the same as those of FIG. 1C.
# [3] = system: HCT116 cells; experiment: apoptosis of siRNA-expressing HCT116 cells treated with low-concentration anticancer agents, with or without rVEGF; type: cell-based, human; conditions: HCT116 not expressing siRNA (NT) and control siRNA cells, low concentrations, 60 hours
# Procedure: The recombinant vectors that express vegf siRNA#1 and #2 and the vectors that express control siRNA were transfected into HCT116 cells (parent cells, wild-type p53). As a control cell, an HCT116 cell not transfected with a recombinant vector that expresses siRNA was used. These four types of cells were treated in the presence or absence of various anticancer agents having the final concentrations as described below for 60 hours. As the anticancer agent, etoposide (20 μmol/L), doxorubicin (170 nmol/L), and 5-FU (40 μmol/L) were used. With respect to the treated cells, apoptosis (%) was quantified in the same manner as in Example A1.
# UTR RNA and function of VEGF protein. With the aim of clarifying an effect of blocking the function of vegf 5′ UTR RNA, recombinant VEGF protein (R&D systems, hereinafter referred to as “rVEGF”) was added to a culture supernatant of cells transfected with vegf siRNA in order to add VEGF protein that is decreased due to siRNA. […] Therefore, in Example A9, 1 ng/ml of rVEGF protein was added to the four types of cells. […] Then, these transfection cells were treated with anticancer agents in the same manner as described above.
# [4] = system: p53-deleted cells HCT116; experiment: apoptosis (TUNEL) in p53-deleted HCT116 cells with vegf siRNA and 5-FU; type: cell-based, human; conditions: p53-deleted cells HCT116, treatment with 5-FU
# Procedure: Apoptotic cells were evaluated by a TUNEL staining method using in situ Cell Death Detection kit (Roche Diagnostic). […] The counting was performed with respect to at least 300 cells in one measurement.
# Various types of cells were treated with 5-FU, which is an anticancer agent inducing apoptosis in a p53-dependent manner, and the sensitivity to apoptosis was analyzed. The vegf siRNA#1 vectors expressing siRNA#1, the vegf siRNA #2 vectors expressing siRNA #2, and the control siRNA vectors described above respectively were transfected into HCT 116 (parent cells) and p53-deleted cells HCT116. Then, the cells after 18 hours from the transfection was treated for 60 hours in the presence of […] of 5-FU (+) or in the absence of 5-FU (−). The proportion (%) of apoptosis positive cells in the thus-treated cells was calculated based on “Apoptotic evaluation 2” above (means±SD, n=4).
# [5] = system: HCT116 cells; experiment: p53 mRNA, vegf IresRNA and vegf mRNA in HCT116 cells exposed to genotoxic stress (Northern); type: cell-based, human
# Procedure: HCT116 cells (parent cells) were exposed to genotoxic stress that upregulates the expression of p53 mRNA. […] Also, HCT116 cells were exposed to UV-B for 1 minute. Then, after placing them under non-exposed conditions for a predetermined time (6, 12 hours), the expressions were examined in the same manner as in the above.
# [6] = system: p53 mRNA; experiment: degradation/silencing of exogenous p53 mRNA in H1299 cells (Northern); type: cell-based, human; conditions: H1299, cycloheximide 50 μg/ml, 16 hours
# Procedure: In the same manner as in Example A4, the p53 expression vectors and each type of the recombinant plasmid vectors, pVC and pVCmut5′, or empty vectors (mock) were cotransfected into H1299 cells (p53 null), and the cells were cultured for 12 hours. RNA was collected from each type of the transfection cells, the RNA was separated by a denatured agarose gel electrophoresis, and exogenous p53 mRNA and its degradation product were detected by the Northern blotting. FIG. 7A is a photograph showing exogenous p53 mRNA and its degradation product in each type of the cells. In FIG. 7A, the lane 1 “mock” indicates the result obtained regarding the cells transfected with the empty vectors, the lane 2 “VEGF mut5′” indicates the result obtained regarding the cells transfected with pVCmut5′, and the lane 3 “VEGF 5” indicates the result obtained regarding the cells transfected with pVC. The size (nt) of an RNA marker (Ambion, Inc.) was shown on the left of the photograph of blotting.
# First, the p53 expression vectors and each type of the recombinant plasmid vectors, pVC and pVCmut5′, were cotransfected into H1299 cells (p53 null), and the cells were cultured for 8 hours. […] With respect to the treated cells, the expression level of p53 mRNA was analyzed by the Northern blotting. […]
# [7] = system: p53 mRNA; experiment: cell-free protein synthesis reaction after heteroduplex formation; type: biochemical, human; conditions: cell-free protein synthesis with p53 mRNA/5′ UTR RNA heteroduplex, cycloheximide added
# Procedure: (5) Detection of p53 mRNA and its Degradation Product In the same manner as in the above-described item (3), mutant 5′ UTR RNA or 5′ UTR was incubated with p53 mRNA. As described above, mutant 5′ UTR RNA and p53 mRNA form a heteroduplex by incubation. Then, using the treated RNA samples, in the presence or absence of cycloheximide (final concentration of […]) or in the presence of purified ribosome prepared by a sucrose density-gradient centrifugation method, a cell-free protein synthesis reaction was performed. The cell-free protein synthesis was carried out by making reference to the research paper (Huez, I. et al. Mol. Cell. Biol. 18, 6178-6190 (1998)) or using Wako PURE system (trade name, Wako Chemical) following the specifications thereof.
# In the same manner as in the above-described item (4), RNAs each were incubated in the combination shown in FIG. 8E, and cell-free protein synthesis was carried out. In this state, [^35S] methionine coexisted in a reaction solution of cell-free protein synthesis. Then, p53 protein synthesized in vitro was separated by SDS-PAGE using a polyacrylamide gel of 12%, and a dried gel was subjected to an autoradiography. FIG. 8E is an autoradiography showing synthesis of p53 protein in a reaction solution of cell-free protein in the presence of vegf 5′ UTR. […]
# [8] = system: vegf IresRNA; experiment: p53 mRNA in p53-deleted HCT116 cotransfected with p53 vector, vegf IresRNA vector and decoy or antisense LNA-DNA (Northern); type: cell-based, human
# [9] = system: HCT116 cells (wild-type p53); experiment: survival rate of HCT116 cells transfected with decoy or antisense LNA-DNA after 5-FU; type: cell-based, human; conditions: after 5-FU (40 μmol/L)
# Procedure: The wild-type and mutant-type p53 decoy LNA-DNA were transfected into HCT116 cells (wild-type p53). The cells transfected with the decoys were cultured in McCoy's 5A medium containing 10% fetal bovine serum and 100 μg/ml (100 units/ml) of streptomycin, and the relative value of the survival rate (%) was calculated according to “Apoptosis evaluation 2”. The relative value was obtained with the number of viable cells of 5-FU untreated cells being considered as 100%. In addition, the survival rate of HCT cells (p53) not transfected with the decoys also was calculated in the same manner as described above.
# The wild-type and mutant-type vegf antisenses were transfected into HCT116 cells (wild-type p53). With respect to the cells transfected with the antisenses, the relative value of the survival rate (%) was calculated in the same manner as in Example C4. The relative value was obtained with the number of viable cells of 5-FU untreated cells being considered as 100%. In addition, the survival rate of HCT cells (wild-type p53) not transfected with the vegf antisenses was also calculated in the same manner as described above.
# [10] = vegf antisense LNA-DNA cotransfected with vegf IresRNA and p53 expression vectors
compound,measurement,setting,value
"O=c1[nH]cc(F)c(=O)[nH]1 [5-FU, 5-fluorouracil, reference compound]",proportion of apoptosis,[1],slightly increased
same,expression of p21 mRNA,[2],slightly induced
same,significant enhancement of apoptosis,[3],not induced
same,proportion of apoptosis,[4],increased slightly
same,vegf IresRNA and vegf mRNA expression,"[5]; HCT116, 5-FU 80 μmol/L or MMC 6 μg/ml, 0, 6, 12 hours",increased markedly
same,expression of the p53 mRNA,"[5]; HCT116, 5-FU 80 μmol/L, MMC 6 μg/ml or cisplatin 5 μg/ml, 0, 6, 12 hours",suppressed
C[C@@H]1C[C@@H]([C@H](O)CC2CC(=O)NC(=O)C2)C(=O)[C@@H](C)C1 [cycloheximide],effect on silencing of p53 mRNA due to vegf 5′ UTR,[6],marked inhibition of silencing
same,effect on partial degradation of p53 mRNA,[7],completely blocked
"COc1cccc2c1C(=O)c1c(O)c3c(c(O)c1C2=O)C[C@@](O)(C(=O)CO)C[C@@H]3O[C@H]1C[C@H](N)[C@H](O)[C@H](C)O1 [doxorubicin, reference compound]",significant enhancement of apoptosis,[3],not induced
"COc1cc([C@@H]2c3cc4c(cc3[C@@H](O[C@@H]3O[C@@H]5CO[C@@H](C)O[C@H]5[C@H](O)[C@H]3O)[C@H]3COC(=O)[C@H]23)OCO4)cc(OC)c1O [etoposide, reference compound]",significant enhancement of apoptosis,[3],not induced
"mutant-type p53 decoy: LNA-DNA of the p53 decoy sequence introduced with mutation, SEQ ID NO: 94, 5′-cccGCcCACCcGGctgGTcca-3′ (DNA CCCGCCCACCCGGCTGGTCCA; LNA-DNA mixmer, LNA positions not given here)",expression amount of p53 mRNA,[8]; p53 decoy LNA-DNA cotransfected with vegf IresRNA and p53 expression vectors,small
"mutant-type vegf antisense: antisense LNA-DNA having the sequence introduced with mutation, SEQ ID NO: 95, 5′-cccGCcCGggTcGTcCgcAccA-3′ (antisense CCCGCCCGGGTCGTCCGCACCA; LNA-DNA mixmer, LNA positions not given here)",expression amount of p53 mRNA,[8]; [10],small
"wild-type p53 decoy: LNA-DNA corresponding to a sequence from base 462 to base 482 of p53 mRNA, SEQ ID NO: 93, 5′-ccccgcgtggcccctgcacca-3′ (DNA CCCCGCGTGGCCCCTGCACCA; LNA-DNA mixmer, LNA positions not given here)",survival rate of cells,"[9]; p53 decoy, vs no decoy and mutant-type decoy",decreased
"wild-type vegf antisense: antisense LNA-DNA complementary to bases 693 to 714 of vegf IresRNA, SEQ ID NO: 74, 5′-ccccgcgcggaccacggctcct-3′ (antisense CCCCGCGCGGACCACGGCTCCT; LNA-DNA chimera, LNA positions not given here)",expression amount of p53 mRNA,[8]; [10],marked expression amount
same,survival rate of cells,"[9]; vegf antisense, vs cells (none) not transfected",markedly decreased
